Experimental data taken from patent publication US5502068A, “Cyclopropylpyrroloindole-oligopeptide anticancer agents” (Synphar Laboratories, Inc., priority 1995, dated 1996).
Values after ≈ are worked out from the molar mass of the structure shown. “Also recorded” adds a separate entry of the source. Like-named read-outs stand apart in the source and are kept apart here.

Assays:
[1] = tested on: KB human nasopharyngeal carcinoma cells; experiment: Cytotoxicity (antiproliferative effect), crystal violet staining; type: cell-based; settings: for IC50: Homo sapiens, KB, 72 h
Protocol: KB human nasopharyngeal carcinoma cells, were maintained in RPMI 1640 medium supplemented with 10% fetal bovine serum. KB cells were cultured in plastic tissue culture flasks and kept in an incubator at 37° C. in humidified air containing 5% CO2. These cells were free of Mycoplasma as determined with Hoechst 33258 stain.
The antiproliferative effect of compounds was determined using cell staining method by crystal violet.
One hundred-μ1 cultures were established at 10^3 cells/well in 96-well tissue culture plates (Nunc, Roskilde, Denmark). After 24 h. 100 µl of the medium containing 2 times concentrated the compounds were added to the cell culture. After an additional 3 days culture, cells were fixed to 20 µl of 25% glutaraldehyde for 15 minutes and washed with water, dried and stained with 0.05% crystal violet in 20% methanol for 15 minutes. After washing with water and drying, crystal violet was extracted with 100 µl of 50 mM NaH2 PO4 /ethanol (1:1 v/v) and OD540 was measured by the multiscanphotometer (Corona, Tokyo, Japan). A linear relationship between cell number and the amount of dye binding was found over the range of cell densities observed all experiments.

[2] = tested on: DNA; settings: in words, cited from earlier work
[3] = tested on: DNA; experiment: Site and sequence selective DNA alkylation by polyacrylamide gel electrophoresis (PAGE); type: biochemical; settings: for Alkylation Intensity at AATA*: site AATA*; for Alkylation Intensity at ATAA*: site ATAA*; for Alkylation Intensity at CTTA: site CTTA; for Alkylation Intensity at GAAA: site GAAA; for Alkylation Intensity at GATA*: site GATA*; for Alkylation Intensity at GTTA: site GTTA; for Alkylation Intensity at TATA: site TATA; for Alkylation Intensity at TTAA*: site TTAA*; for Alkylation Intensity at TTTA: site TTTA
Description: In contrast to FCE 24517, clear evidence of site and sequence selective DNA alkylation was obtained for the new CPI-oligopeptides by polyacrylamide gel electrophoresis (PAGE). […] Table 5 quantifies and compares the alkylation intensities at different sites for the CPI-oligopeptides with CC-1065. […] A detailed analysis of the frequency of occurrence of bases flanking the prominent alkylation sites for YW-052 and YW-053 compared with CC-1065 is given in Table 7.

[4] = tested on: P388 lymphocytic leukemia cells; experiment: Antitumor efficacy, i.p. P388 lymphocytic leukemia in CDF1 mice; type: in vivo, mouse; settings: for In vivo ILS P388 (ip): maximum ILS
Protocol: All compounds were dissolved in dimethyl sulfoxide (DMSO), diluted in sterile 0.9% NaCl solution to 5% final DMSO concentration. BALB/c X DBA/2F1 (CDF1) mice were purchased from Japan CLEA. P388 lymphocytic leukemia cells were inoculated intraperitoneally (10^6 cells) 1 day prior to treatment into 6 week-old male CDF1 mice, and compounds were injected intraperitoneally in a total volume of 0.1 ml/10g mouse body weight. Efficacy for these models was expressed as the Increase in life span (ILS) of treated mice in comparison to untreated tumor-bearing mice. Experiment was completed on day 30 after tumor inoculation, and survivor on that day was evaluated as cured animal. Time to death (mean±SD.n=9) for untreated animals was 11.5±1.2 day and for solvent treated animals was 11.7±2.1 day.

[5] = in words; cited from earlier work
[6] = tested on: herpes viruses; settings: cited from earlier work
[7] = Table 1, KB cells, 3 days, read-out: KB cells, toxicity TD50
[8] = Table 2, KB cells, 3 days, read-out: KB cells, toxicity TD50
[9] = Table 3, KB cells, 3 days, read-out: KB cells, toxicity TD50
[10] = Table 4, KB cell, read-out: Cytotoxicity IC50 (KB cell)

Work on `COc1cccc2c1C(=O)c1c(O)c3c(c(O)c1C2=O)C[C@@](O)(C(=O)CO)C[C@@H]3O[C@H]1C[C@H](N)[C@H](O)[C@H](C)O1` [Adriamycin, reference compound] yielded an IC50 [1, 7] of 11 ng/mL (≈ 20.2 nM), an IC50 [1, 8] of 5 ng/mL (≈ 9.2 nM) and an IC50 [1, 9] of 4.4 ng/mL (≈ 8.1 nM).

For `Cn1cc(NC(=O)c2cc(NC(=O)c3cc(NC(=O)c4ccc(N(CCCl)CCCl)cc4)cn3C)cn2C)cc1C(=O)NCCC(=N)N` [FCE 24517], the DNA alkylation ([2]; Arcamone et al., 1989) is listed as “shows no evidence of DNA alkylation” and the DNA sequence recognition [2] is listed as “strictly AT recognizing; also recorded: strictly limited AATT recognition”.

With `CC(=O)Nc1cc(C(=O)N2CC3CC34C2=CC(=O)c2[nH]cc(C)c24)n(C)c1` (stereo not drawn) [YW-031] the IC50 [1, 7] was 0.0324 ng/mL (≈ 0.0889 nM).

In the case of `Cc1c[nH]c2c1C13CC1CN(C(=O)c1cccn1C)C3=CC2=O` (stereo not drawn) [YW-032], the IC50 [1, 7] is reported as 38 ng/mL (≈ 124 nM), the “Alkylation Intensity at AATA*” value [3] is reported as 1.35 and the “Alkylation Intensity at ATAA*” value ([3]; first column of Table 5) is reported as “.88”. For the same compound, the “Alkylation Intensity at ATAA*” value ([3]; third column of Table 5) was 1.01, the “Alkylation Intensity at CTTA” value [3] was “.61” and the “Alkylation Intensity at GAAA” value [3] was “.79”. The “Alkylation Intensity at GATA*” value [3] was 1.35, the “Alkylation Intensity at GTTA” value [3] was 1.03 and the “Alkylation Intensity at TATA” value [3] was 1.05. The “Alkylation Intensity at TTAA*” value [3] was “.71” and the “Alkylation Intensity at TTTA” value [3] was “.63”.

For `Cc1c[nH]c2c1C13CC1CN(C(=O)CCc1cccn1C)C3=CC2=O` (stereo not drawn) [YW-033], the IC50 [1, 7] was 263 ng/mL (≈ 784 nM), the “Alkylation Intensity at AATA*” value [3] was 1.42 and the “Alkylation Intensity at ATAA*” value ([3]; first column of Table 5) was “.95”. The “Alkylation Intensity at ATAA*” value ([3]; third column of Table 5) was 1.11, the “Alkylation Intensity at CTTA” value [3] was “.68” and the “Alkylation Intensity at GAAA” value [3] was “.84”. The “Alkylation Intensity at GATA*” value [3] was 1.41, the “Alkylation Intensity at GTTA” value [3] was 1.27 and the “Alkylation Intensity at TATA” value [3] was 1.40. For the same compound, the “Alkylation Intensity at TTAA*” value [3] was “.84” and the “Alkylation Intensity at TTTA” value [3] was “.97”.

In the case of `Cc1c[nH]c2c1C13CC1CN(C(=O)C=Cc1cccn1C)C3=CC2=O` (stereo not drawn) [YW-034], the IC50 [1, 7] is reported as 0.275 ng/mL (≈ 0.825 nM), the IC50 [1, 10] is reported as 0.27 ng/mL (≈ 0.81 nM) and the “In vivo ILS P388 (ip)” value ([4]; 1 mg/kg ip) is reported as 37.9%. The “Alkylation Intensity at AATA*” value [3] was 1.30, the “Alkylation Intensity at ATAA*” value ([3]; first column of Table 5) was “.71” and the “Alkylation Intensity at ATAA*” value ([3]; third column of Table 5) was “.84”. For the same compound, the “Alkylation Intensity at CTTA” value [3] was “.44”, the “Alkylation Intensity at GAAA” value [3] was “.55” and the “Alkylation Intensity at GATA*” value [3] was 1.09. For the same compound, the “Alkylation Intensity at GTTA” value [3] was “.73”, the “Alkylation Intensity at TATA” value [3] was “.77” and the “Alkylation Intensity at TTAA*” value [3] was “.52”. For the same compound, the “Alkylation Intensity at TTTA” value [3] was “.49”.

For `CCC(=O)Nc1cc(C(=O)N2CC3CC34C2=CC(=O)c2[nH]cc(C)c24)n(C)c1` (stereo not drawn) [YW-035], the IC50 [1, 10] was 1 ng/mL (≈ 2.64 nM) and the “In vivo ILS P388 (ip)” value ([4]; 0.1 mg/kg ip) was 56.5%.

For `CCCC(=O)Nc1cc(C(=O)N2CC3CC34C2=CC(=O)c2[nH]cc(C)c24)n(C)c1` (stereo not drawn) [YW-036], the IC50 [1, 10] was 0.47 ng/mL (≈ 1.2 nM), the “In vivo ILS P388 (ip)” value ([4]; 0.3 mg/kg ip, 30 day survivors not included) was 24.6% and the cure ([4]; 0.3 mg/kg ip, survivors on day 30 evaluated as cured) was 1/7.

For `CCCC(=O)Nc1cc(C(=O)Nc2cc(C=CC(=O)N3CC4CC45C3=CC(=O)c3[nH]cc(C)c35)n(C)c2)n(C)c1` (stereo not drawn) [YW-053], the “Frequency of Occurrence, base A at +1” value ([3]; A, position +1) was 27%, the “Frequency of Occurrence, base A at +2” value ([3]; A, position +2) was 27% and the “Frequency of Occurrence, base A at +3” value ([3]; A, position +3) was 27%. The “Frequency of Occurrence, base A at -1” value ([3]; A, position -1) was 36%, the “Frequency of Occurrence, base A at -2” value ([3]; A, position -2) was 45% and the “Frequency of Occurrence, base A at -3” value ([3]; A, position -3) was 36%. For the same compound, the “Frequency of Occurrence, A/T at +1” value ([3]; A/T, position +1) was 82%, the “Frequency of Occurrence, A/T at +2” value ([3]; A/T, position +2) was 54% and the “Frequency of Occurrence, A/T at +3” value ([3]; A/T, position +3) was 54%. The “Frequency of Occurrence, A/T at -1” value ([3]; A/T, position -1) was 100%, the “Frequency of Occurrence, A/T at -2” value ([3]; A/T, position -2) was 100% and the “Frequency of Occurrence, A/T at -3” value ([3]; A/T, position -3) was 63%. The “Frequency of Occurrence, base C at +2” value ([3]; C, position +2) was 9%, the “Frequency of Occurrence, base C at +3” value ([3]; C, position +3) was 9% and the “Frequency of Occurrence, base C at -3” value ([3]; C, position -3) was 10%. For the same compound, the “Frequency of Occurrence, base G at +1” value ([3]; G, position +1) was 28%, the “Frequency of Occurrence, base G at +2” value ([3]; G, position +2) was 37% and the “Frequency of Occurrence, base G at +3” value ([3]; G, position +3) was 37%. For the same compound, the “Frequency of Occurrence, base G at -3” value ([3]; G, position -3) was 27%, the “Frequency of Occurrence, base T at +1” value ([3]; T, position +1) was 45% and the “Frequency of Occurrence, base T at +2” value ([3]; T, position +2) was 27%. For the same compound, the “Frequency of Occurrence, base T at +3” value ([3]; T, position +3) was 27%, the “Frequency of Occurrence, base T at -1” value ([3]; T, position -1) was 64% and the “Frequency of Occurrence, base T at -2” value ([3]; T, position -2) was 55%. The “Frequency of Occurrence, base T at -3” value ([3]; T, position -3) was 27%, the “Frequency of Occurrence, A* (site of alkylation)” value ([3]; alkylated base A*) was 91% and the “Frequency of Occurrence, G* (site of alkylation)” value ([3]; alkylated base G*) was 9%. For the same compound, the “Alkylation Sites (5'-3'), Moderate” value ([3]; moderate sites, listed as YW-53) was “TTAA, AATG, GATA; also recorded: ATAA, CTTA, GAAA” and the “Alkylation Sites (5'-3'), Strong” value ([3]; strong sites, listed as YW-53) was “TTTA, TATA, GTTA; also recorded: AATA, ATAA”.

With `CC(=O)Nc1cc(C=CC(=O)N2CC3CC34C2=CC(=O)c2[nH]cc(C)c24)n(C)c1` (stereo not drawn) [YW-059] the IC50 [1, 8] was 0.00015 ng/mL (≈ 0.000384 nM) and the “cytotoxic potency / anticancer activity in vitro” value ([1]; human tumor KB cell line, in words) was “exceeding in the case of YW-059, for example, that of any other reported natural or synthetic agents; also recorded: cytotoxic potency exceeds that of any other agent, natural or synthetic, reported to date”.

For `Cc1c[nH]c2c1C13CC1CN(C(=O)c1cc(NC(=O)CCN(C)C)cn1C)C3=CC2=O` (stereo not drawn) [YW-60], the IC50 [1, 9] was 184 ng/mL (≈ 437 nM).

`Cc1c[nH]c2c1C13CC1CN(C(=O)c1cc(NC(=O)c4cc(NC(=O)CCN(C)C)cn4C)cn1C)C3=CC2=O` (stereo not drawn) [YW-61] showed an IC50 [1, 9] of 2490 ng/mL (≈ 4580 nM).

`Cc1c[nH]c2c1C13CC1CN(C(=O)c1cc(NC(=O)c4cc(NC(=O)c5cc(NC(=O)CCN(C)C)cn5C)cn4C)cn1C)C3=CC2=O` (stereo not drawn) [YW-62] showed an IC50 [1, 9] of 1370 ng/mL (≈ 2060 nM).

`Cc1c[nH]c2c1C13CC1CN(C(=O)c1nc(NC(=O)CCN(C)C)cn1C)C3=CC2=O` (stereo not drawn) [YW-63] showed an IC50 [1, 9] of 385 ng/mL (≈ 911 nM).

Compound `Cc1c[nH]c2c1C13CC1CN(C(=O)c1nc(NC(=O)c4nc(NC(=O)CCN(C)C)cn4C)cn1C)C3=CC2=O` (stereo not drawn) [YW-64] has an IC50 [1, 9] of 2520 ng/mL (≈ 4620 nM).

In the case of `Cn1cc(NC(=O)c2cc(NC(=O)c3cc(NC=O)cn3C)cn2C)cc1C(=O)NCCC(=N)N` [distamycin], the cytotoxicity [5] is listed as “high cytotoxicity” and the therapeutic index [6] is listed as “about 3”.
